Patent US12599136B2, “Substituted isophthalic acid diamides and their use as herbicides” (Bayer Aktiengesellschaft, priority 2020, dated 2026)

Assays:
Type in all cases: in vivo
Abutilon theophrasti = test: Pre-emergence herbicidal action against ABUTH; conditions: visual score after 3 weeks vs untreated controls
How it was run: (§1)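 Sandy loam pots, seeds covered with soil, then surface-treated with WP or EC formulations at 600–800 l/ha water plus 0.2% wetting agent. Greenhouse, 3 weeks. Percent damage vs untreated controls.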

Alopecurus myosuroides [1] = test: Pre-emergence herbicidal action against ALOMY; conditions: 80 g/ha; visual score after 3 weeks vs untreated controls
How it was run: as §1

Amaranthus retroflexus [2] = test: Pre-emergence herbicidal action against AMARE; conditions: visual score after 3 weeks vs untreated controls
How it was run: as §1

Echinochloa crus-galli [3] = test: Pre-emergence herbicidal action against ECHCG; conditions: 80 g/ha; visual score after 3 weeks vs untreated controls
How it was run: as §1

Matricaria inodora [4] = test: Pre-emergence herbicidal action against MATIN; conditions: visual score after 3 weeks vs untreated controls
How it was run: as §1

Pharbitis purpurea = test: Pre-emergence herbicidal action against PHBPU; conditions: 80 g/ha; visual score after 3 weeks vs untreated controls
Description: Seeds of monocotyledonous and dicotyledonous weed plants and crop plants are laid out in sandy loam soil in wood-fiber pots and covered with soil. The compounds of the invention, formulated in the form of wettable powders (WP) or as emulsion concentrates (EC), are then applied to the surface of the covering soil in the form of an aqueous suspension or emulsion at a water application rate equivalent to 600 to 800 l/ha, with addition of 0.2% wetting agent. After the treatment, the pots are placed in a greenhouse and kept under good growth conditions for the trial plants. The damage to the test plants is scored visually after a test period of 3 weeks by comparison with untreated controls (herbicidal activity in percent (%): 100% activity=the plants have died, 0% activity=like control plants). […] The tables below illustrate, in an illustrative manner, the post-emergence herbicidal action of the compounds of the invention, the herbicidal activity being stated in percent.

Digitaria sanguinalis [5] = test: Pre-emergence herbicidal action against DIGSA
How it was run: as §1

Setaria viridis [6] = test: Pre-emergence herbicidal action against SETVI; conditions: 80 g/ha
How it was run: as §1

Veronica persica = test: Pre-emergence herbicidal action against VERPE
How it was run: as §1

Viola tricolor [7] = test: Pre-emergence herbicidal action against VIOTR
How it was run: as §1

Alopecurus myosuroides [8] = test: Post-emergence herbicidal action against ALOMY
How it was run: (§2)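 Herbicidal action is a visual percentage rating (0% = as untreated control, 100% = plants dead) made roughly 3 weeks after treatment. Plants were grown in sandy loam in the greenhouse and treated at the one-leaf stage, 2 to 3 weeks post-sowing. Treatment was a foliar spray of wettable-powder or emulsion-concentrate formulations at 600 to 800 l/ha water plus 0.2% wetting agent.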

Amaranthus retroflexus [9] = test: Post-emergence herbicidal action against AMARE; conditions: visual assessment about 3 weeks after treatment
How it was run: as §2

Avena fatua = test: Post-emergence herbicidal action against AVEFA; conditions: 20 g/ha, visual assessment about 3 weeks after treatment
How it was run: as §2

Echinochloa crus-galli [10] = test: Post-emergence herbicidal action against ECHCG; conditions: visual assessment about 3 weeks after treatment
How it was run: as §2

Matricaria inodora [11] = test: Post-emergence herbicidal action against MATIN; conditions: visual assessment about 3 weeks after treatment
How it was run: as §2

Digitaria sanguinalis [12] = test: Post-emergence herbicidal action against DIGSA
How it was run: as §2

Polygonum convolvulus = test: Post-emergence herbicidal action against POLCO; conditions: 20 g/ha, visual assessment about 3 weeks after treatment
Method: Seeds of monocotyledonous and dicotyledonous weed and crop plants are laid out in sandy loam soil in wood-fiber pots, covered with soil and cultivated in a greenhouse under good growth conditions. 2 to 3 weeks after sowing, the test plants are treated at the one-leaf stage. The compounds of the invention, formulated in the form of wettable powders (WP) or as emulsion concentrates (EC), are then sprayed onto the green parts of the plants in the form of an aqueous suspension or emulsion at a water application rate equivalent to 600 to 800 l/ha, with addition of 0.2% wetting agent. After the test plants have been left to stand in the greenhouse under optimal growth conditions for about 3 weeks, the action of the preparations is assessed visually in comparison to untreated controls (herbicidal action in percent (%): 100% activity=the plants have died, 0% activity=like control plants). […] The tables below illustrate, in an illustrative manner, the post-emergence herbicidal action of the compounds of the invention, the herbicidal activity being stated in percent.

Setaria viridis [13] = test: Post-emergence herbicidal action against SETVI; conditions: 20 g/ha, visual assessment about 3 weeks after treatment
How it was run: as §2

Viola tricolor [14] = test: Post-emergence herbicidal action against VIOTR
How it was run: as §2

CCN(C(=O)c1c(C(F)(F)F)ccc(C(=O)Nc2nnnn2CC)c1C)C1CC1 [Example 2-32]
Pre-emergence action against ABUTH (Abutilon theophrasti; 20 g/ha): 100%
Pre-emergence action against ABUTH (Abutilon theophrasti; 80 g/ha): 100%
Pre-emergence action against ALOMY (Alopecurus myosuroides [1]): 90%
Pre-emergence action against AMARE (Amaranthus retroflexus [2]; 20 g/ha): 100%
Pre-emergence action against AMARE (Amaranthus retroflexus [2]; 80 g/ha): 100%
Pre-emergence action against ECHCG (Echinochloa crus-galli [3]): 90%
Pre-emergence action against MATIN (Matricaria inodora [4]; 20 g/ha): 80%
Pre-emergence action against MATIN (Matricaria inodora [4]; 80 g/ha): 100%
Pre-emergence action against PHBPU (Pharbitis purpurea): 80%
Pre-emergence action against DIGSA (Digitaria sanguinalis [5]; 20 g/ha): 100%
Pre-emergence action against DIGSA (Digitaria sanguinalis [5]; 80 g/ha): 100%
Pre-emergence action against SETVI (Setaria viridis [6]): 100%
Pre-emergence action against VERPE (Veronica persica; 20 g/ha): 90%
Pre-emergence action against VERPE (Veronica persica; 80 g/ha): 90%
Pre-emergence action against VIOTR (Viola tricolor [7]; 20 g/ha): 90%
Pre-emergence action against VIOTR (Viola tricolor [7]; 80 g/ha): 100%
Post-emergence action against ALOMY (Alopecurus myosuroides [8]; 5 g/ha): 80%
Post-emergence action against ALOMY (Alopecurus myosuroides [8]; 20 g/ha): 100%
Post-emergence action against AMARE in % (Amaranthus retroflexus [9]; 5 g/ha): 100%
Post-emergence action against AMARE in % (Amaranthus retroflexus [9]; 20 g/ha): 100%
Post-emergence action against AVEFA in % (Avena fatua): 80%
Post-emergence action against ECHCG in % (Echinochloa crus-galli [10]; 5 g/ha): 90%
Post-emergence action against ECHCG in % (Echinochloa crus-galli [10]; 20 g/ha): 90%
Post-emergence action against MATIN in % (Matricaria inodora [11]; 5 g/ha): 80%
Post-emergence action against MATIN in % (Matricaria inodora [11]; 20 g/ha): 90%
Post-emergence action against DIGSA in % (Digitaria sanguinalis [12]; 5 g/ha): 90%
Post-emergence action against DIGSA in % (Digitaria sanguinalis [12]; 20 g/ha): 90%
Post-emergence action against POLCO in % (Polygonum convolvulus): 80%
Post-emergence action against SETVI in % (Setaria viridis [13]): 90%
Post-emergence action against VIOTR in % (Viola tricolor [14]; 5 g/ha): 80%
Post-emergence action against VIOTR in % (Viola tricolor [14]; 20 g/ha): 90%
